Measurements published in PMC7070898 (Clinical and Translational Science, 2019).

Assay: Safety and tolerability
[1] = MAD 25 mg once daily 14 days, n = 9
[2] = MAD 75 mg once daily 14 days, n = 9
[3] = MAD 200 mg once daily 14 days, n = 9

C=CC(=O)N1CCC(CNc2ncnc(N)c2-c2ccc(Oc3ccccc3)cc2)CC1 [evobrutinib]
TEAE: Abdominal discomfort [1]: 1 (11.1) (1) n (%), (number of events)
TEAE: Abdominal pain [1]: 0 (0.0) n (%), (number of events)
TEAE: Application site irritation [1]: 0 (0.0) n (%), (number of events)
TEAE: Complex regional pain [1]: 1 (11.1) (1) n (%), (number of events)
TEAE: Constipation [1]: 0 (0.0) n (%), (number of events)
TEAE: Dry throat [1]: 0 (0.0) n (%), (number of events)
TEAE: Excoriation [1]: 1 (11.1) (1) n (%), (number of events)
TEAE: Fatigue [1]: 0 (0.0) n (%), (number of events)
TEAE: Headache [1]: 1 (11.1) (1) n (%), (number of events)
TEAE: Muscle spasms [1]: 0 (0.0) n (%), (number of events)
TEAE: Muscle strain [1]: 1 (11.1) (1) n (%), (number of events)
TEAE: Nausea [1]: 0 (0.0) n (%), (number of events)
TEAE: Overall total [1]: 3 (33.3) (6) n (%), (number of events)
TEAE: Rhinorrhea [1]: 1 (11.1) (1) n (%), (number of events)
TEAE: Sneezing [1]: 0 (0.0) n (%), (number of events)
TEAE: Toothache [1]: 0 (0.0) n (%), (number of events)
TEAE: URTI [1]: 0 (0.0) n (%), (number of events)
TEAE: Abdominal discomfort [2]: 0 (0.0) n (%), (number of events)
TEAE: Abdominal pain [2]: 1 (11.1) (2) n (%), (number of events)
TEAE: Application site irritation [2]: 1 (11.1) (1) n (%), (number of events)
TEAE: Complex regional pain [2]: 0 (0.0) n (%), (number of events)
TEAE: Constipation [2]: 1 (11.1) (1) n (%), (number of events)
TEAE: Dry throat [2]: 1 (11.1) (1) n (%), (number of events)
TEAE: Excoriation [2]: 0 (0.0) n (%), (number of events)
TEAE: Fatigue [2]: 2 (22.2) (2) n (%), (number of events)
TEAE: Headache [2]: 2 (22.2) (2) n (%), (number of events)
TEAE: Muscle spasms [2]: 1 (11.1) (1) n (%), (number of events)
TEAE: Muscle strain [2]: 0 (0.0) n (%), (number of events)
TEAE: Nausea [2]: 1 (11.1) (2) n (%), (number of events)
TEAE: Overall total [2]: 7 (77.8) (14) n (%), (number of events)
TEAE: Rhinorrhea [2]: 0 (0.0) n (%), (number of events)
TEAE: Sneezing [2]: 1 (11.1) (1) n (%), (number of events)
TEAE: Toothache [2]: 0 (0.0) n (%), (number of events)
TEAE: URTI [2]: 1 (11.1) (1) n (%), (number of events)
TEAE: Abdominal discomfort [3]: 0 (0.0) n (%), (number of events)
TEAE: Abdominal pain [3]: 0 (0.0) n (%), (number of events)
TEAE: Application site irritation [3]: 1 (11.1) (1) n (%), (number of events)
TEAE: Complex regional pain [3]: 0 (0.0) n (%), (number of events)
TEAE: Constipation [3]: 0 (0.0) n (%), (number of events)
TEAE: Dry throat [3]: 0 (0.0) n (%), (number of events)
TEAE: Excoriation [3]: 0 (0.0) n (%), (number of events)
TEAE: Fatigue [3]: 0 (0.0) n (%), (number of events)
TEAE: Headache [3]: 0 (0.0) n (%), (number of events)
TEAE: Muscle spasms [3]: 0 (0.0) n (%), (number of events)
TEAE: Muscle strain [3]: 0 (0.0) n (%), (number of events)
TEAE: Nausea [3]: 0 (0.0) n (%), (number of events)
TEAE: Overall total [3]: 3 (33.3) (3) n (%), (number of events)
TEAE: Rhinorrhea [3]: 0 (0.0) n (%), (number of events)
TEAE: Sneezing [3]: 0 (0.0) n (%), (number of events)
TEAE: Toothache [3]: 1 (11.1) (1) n (%), (number of events)
TEAE: URTI [3]: 1 (11.1) (1) n (%), (number of events)
TEAE: Abdominal discomfort (MAD pooled active, n = 27): 1 (3.7) (1) n (%), (number of events)
TEAE: Abdominal pain (MAD pooled active, n = 27): 1 (3.7) (2) n (%), (number of events)
TEAE: Application site irritation (MAD pooled active, n = 27): 2 (7.4) (2) n (%), (number of events)
TEAE: Complex regional pain (MAD pooled active, n = 27): 1 (3.7) (1) n (%), (number of events)
TEAE: Constipation (MAD pooled active, n = 27): 1 (3.7) (1) n (%), (number of events)
TEAE: Dry throat (MAD pooled active, n = 27): 1 (3.7) (1) n (%), (number of events)
TEAE: Excoriation (MAD pooled active, n = 27): 1 (3.7) (1) n (%), (number of events)
TEAE: Fatigue (MAD pooled active, n = 27): 2 (7.4) (2) n (%), (number of events)
TEAE: Headache (MAD pooled active, n = 27): 3 (11.1) (3) n (%), (number of events)
TEAE: Muscle spasms (MAD pooled active, n = 27): 1 (3.7) (1) n (%), (number of events)
TEAE: Muscle strain (MAD pooled active, n = 27): 1 (3.7) (1) n (%), (number of events)
TEAE: Nausea (MAD pooled active, n = 27): 1 (3.7) (2) n (%), (number of events)
TEAE: Overall total (MAD pooled active, n = 27): 13 (48.1) (23) n (%), (number of events)
TEAE: Rhinorrhea (MAD pooled active, n = 27): 1 (3.7) (1) n (%), (number of events)
TEAE: Sneezing (MAD pooled active, n = 27): 1 (3.7) (1) n (%), (number of events)
TEAE: Toothache (MAD pooled active, n = 27): 1 (3.7) (1) n (%), (number of events)
TEAE: URTI (MAD pooled active, n = 27): 2 (7.4) (2) n (%), (number of events)
TEAE: Abdominal pain (SAD 25 mg, n = 6): 0 (0.0) n (%), (number of events)
TEAE: Amylase increased (SAD 25 mg, n = 6): 0 (0.0) n (%), (number of events)
TEAE: Application site pruritus (due to ECG stickers) (SAD 25 mg, n = 6): 0 (0.0) n (%), (number of events)
TEAE: Back pain (SAD 25 mg, n = 6): 0 (0.0) n (%), (number of events)
TEAE: Contact dermatitis (SAD 25 mg, n = 6): 0 (0.0) n (%), (number of events)
TEAE: Dizziness (SAD 25 mg, n = 6): 0 (0.0) n (%), (number of events)
TEAE: Dry eye (SAD 25 mg, n = 6): 0 (0.0) n (%), (number of events)
TEAE: Dry mouth (SAD 25 mg, n = 6): 0 (0.0) n (%), (number of events)
TEAE: Dyspepsia (SAD 25 mg, n = 6): 0 (0.0) n (%), (number of events)
TEAE: Excoriation (SAD 25 mg, n = 6): 0 (0.0) n (%), (number of events)
TEAE: Headache (SAD 25 mg, n = 6): 0 (0.0) n (%), (number of events)
TEAE: Lipase increased (SAD 25 mg, n = 6): 0 (0.0) n (%), (number of events)
TEAE: Multiple injuries (SAD 25 mg, n = 6): 0 (0.0) n (%), (number of events)
TEAE: Nasal congestion (SAD 25 mg, n = 6): 0 (0.0) n (%), (number of events)
TEAE: Noncardiac chest pain (SAD 25 mg, n = 6): 0 (0.0) n (%), (number of events)
TEAE: Odynophagia (SAD 25 mg, n = 6): 0 (0.0) n (%), (number of events)
TEAE: Overall total (SAD 25 mg, n = 6): 0 (0.0) n (%), (number of events)
TEAE: URTI (SAD 25 mg, n = 6): 0 (0.0) n (%), (number of events)
TEAE: Abdominal pain (SAD 50 mg, n = 6): 0 (0.0) n (%), (number of events)
TEAE: Amylase increased (SAD 50 mg, n = 6): 0 (0.0) n (%), (number of events)
TEAE: Application site pruritus (due to ECG stickers) (SAD 50 mg, n = 6): 0 (0.0) n (%), (number of events)
TEAE: Back pain (SAD 50 mg, n = 6): 1 (16.7) (1) n (%), (number of events)
TEAE: Contact dermatitis (SAD 50 mg, n = 6): 2 (33.3) (2) n (%), (number of events)
TEAE: Dizziness (SAD 50 mg, n = 6): 0 (0.0) n (%), (number of events)
TEAE: Dry eye (SAD 50 mg, n = 6): 0 (0.0) n (%), (number of events)
TEAE: Dry mouth (SAD 50 mg, n = 6): 0 (0.0) n (%), (number of events)
TEAE: Dyspepsia (SAD 50 mg, n = 6): 1 (16.7) (1) n (%), (number of events)
TEAE: Excoriation (SAD 50 mg, n = 6): 0 (0.0) n (%), (number of events)
TEAE: Headache (SAD 50 mg, n = 6): 1 (16.7) (2) n (%), (number of events)
TEAE: Lipase increased (SAD 50 mg, n = 6): 0 (0.0) n (%), (number of events)
TEAE: Multiple injuries (SAD 50 mg, n = 6): 0 (0.0) n (%), (number of events)
TEAE: Nasal congestion (SAD 50 mg, n = 6): 0 (0.0) n (%), (number of events)
TEAE: Noncardiac chest pain (SAD 50 mg, n = 6): 0 (0.0) n (%), (number of events)
TEAE: Odynophagia (SAD 50 mg, n = 6): 0 (0.0) n (%), (number of events)
TEAE: Overall total (SAD 50 mg, n = 6): 3 (50.0) (6) n (%), (number of events)
TEAE: URTI (SAD 50 mg, n = 6): 0 (0.0) n (%), (number of events)
